Results taken from US20140243403A1, “TREATING COLORECTAL, PANCREATIC, AND LUNG CANCER” (The General Hospital Corporation, priority 2011, published 2014).

Legend:
[1] = Toxicity in treated xenograft mice; format: in vivo, NOD/SCID mice; settings: 15 mg/kg daily intraperitoneal
Experimental: To validate the efficacy of 5Z-7-oxozeaenol in vivo, subcutaneous xenografted tumors were generated in NOD/SCID mice using four representative KRAS mutant cell lines: HCT8 and SW837 (KRAS-independent), and SK-CO-1 and SW620 (KRAS-dependent). Human colorectal cancer tumor cells were trypsinized and resuspended as single cell suspensions at 3×10^7 cells per ml in PBS. 100 μL (3×10^6 cells total) of this suspension were injected into opposite left and right flanks of NOD/SCID mice. All mice were housed in a pathogen-free environment. Tumor size was monitored daily and once tumor volume had reached approximately 200 mm^3, treatment with 5Z-7-oxozeaenol was initiated (7 to 14 days post-implantation). Mice were injected daily with 15 mg/kg 5Z-7-oxozeaenol. The drug was resuspended as a 25 mg/ml stock in DMSO. This was further diluted 10-fold in Arachis Oil (Sigma Inc.) to yield a 2.5 mg/ml stock in 10% DMSO. Approximately 120 μl of this stock was delivered to 20 g mice intraperitoneally. Alternatively, 10% DMSO in Arachis Oil was delivered as a vehicle control.
Palpable tumors were evident two weeks post-implantation, at which time mice were treated with either daily intraperitoneal 15 mg/kg of 5Z-7-oxozeaenol or vehicle alone (Rawlins et al., 1999).

[2] = system: threonine 172 phosphorylation of the AMP-activated kinase (p-AMPK); assay: AMPK threonine 172 phosphorylation, western blot; format: cell-based, human; settings: 24 h
Experimental: (B) Effects of TAK1 inhibition on apoptosis and signaling in a representative panel of KRAS-independent and KRAS-dependent cell lines, 24 h after treatment. PARP and caspase-3 cleavage are shown as indicators of apoptosis, and AMPK threonine 172 (T172) phosphorylation is shown as a downstream indicator of TAK1 signaling activity. GAPDH serves as a gel loading control.
Pharmacologic TAK1 inhibition triggered apoptosis in KRAS-dependent colon cancer cells, as measured by PARP and caspase-3 cleavage (FIG. 3B). […] Thus, low concentrations of 5Z-7-oxozeaenol, in the range of 0.625 to 1.25 μM, promote apoptosis selectively in KRAS-dependent colon cancer cells.
(§1) The following antibodies were used for western blotting in the above examples: KRAS OP-24, Pan-Ras OP-40 (Calbiochem); PARP (BD Pharmigen, 4C10-5); BMP-7 (Abcam); phospho-ERK, Axin2, phospho Smad1 and total Smad1/5/8, phospho- and total AMPK, phospho- and total AKT, cleaved Caspase-3 (Cell Signaling); GAPDH (Chemicon); E-Cadherin, beta-catenin (BD Pharmigen) Syk, TAK1, total ERK1 (Santa Cruz). For secreted BMP-7 levels, 1×10^6 HT29 cells stably expressing ER-KRAS(12V) were plated in 10 cm dishes. 24 h post-plating, 10 ml serum-free DME/F12 medium (Gibco) was added. Conditioned media was collected 24 h post-induction of ER-KRAS(12V) with 4-HT and concentrated to […], using AMICON® Ultra-4 Centrifugal Filter Units with 3 kDa membranes. […]

Wnt target gene Axin 2 = assay: Axin 2 protein expression, western blot; format: cell-based, human
Experimental: (C) Protein expression levels of the Wnt target gene Axin 2 following treatment of cells with the indicated concentrations. GAPDH serves as a loading control.
In contrast, KRAS depletion had no effect in one KRAS-independent line (SW1463) and increased TOP-FLASH activity in another (LS174T). […] To define the effect of TAK1 signaling on a physiological Wnt target gene, protein expression levels of the endogenous Axin 2 gene (Lustig et al., 2002) were measured following treatment with 5Z-7-oxozeaenol. […] Thus, both KRAS and TAK1 suppression selectively suppress β-catenin-mediated transcription and Wnt target gene expression in KRAS-dependent cells.
as §1

[3] = system: HT29 cells expressing mutant KRAS (G12V) 4A or 4B; assay: Sensitivity of HT29 cells expressing mutant KRAS (G12V); format: cell-based, human; settings: HT29 cells expressing 4A or 4B splice isoform of mutant KRAS (G12V)
Description: (D) Forced overexpression of epitope-tagged oncogenic G12V mutated RAS protein isoforms in HT29 cells and sensitivity to TAK1 pharmacological inhibition with 5Z-7-oxozeaenol. Expression levels of exogenous and endogenous Ras proteins are shown by immunoblotting with a pan-ras monoclonal antibody. NRAS/KRAS4B are HA-tagged and KRAS4A is V5-tagged.
These cell lines are insensitive to 5Z-7-oxozeaenol.

[4] = system: HT29 vector control cells; assay: Sensitivity of HT29 vector control cells; format: cell-based, human
Experimental: (E) Introduction of a V5-tagged constitutively activated (CA) mutant of the BMP receptor, BMPR1A (Q233D) or control vector in HT29 cells and effects on 5Z-7-oxozeaenol sensitivity in terms of IC50 values.
To determine whether TAK1-independent cells could be driven toward TAK1 dependency by enhanced KRAS/Wnt signaling, a series of reconstitution experiments was performed. HT29, SW620 or SKCO1 cells were infected with recombinant lentiviruses encoding either BMPR1A-CA and CTNNB1-CA or vector control (containing the ccDB gene). For BMPR1A-CA stable expression, cells were selected in 5 μg/mlBlasticidin for 7 days and pooled clones were established. Stable expression was verified using the V5 epitope tag on the BMPR1A transgene product. For CTNNB1-CA, the pWPI recombinant lentiviruses encode GFP driven by IRES. Thus, stable cell clones were obtaining by FACS live cell sorting to obtain the top 10% of GFP expressing cells. The SW620-CTNNB1-CA stable cell clones were passaged 1:5 every 2 days and assayed for KRAS dependency after the fifth passage.
To further define the role of BMP signaling in TAK1 dependency, a constitutively-activated (CA) variant (Q233D) of BMPR1A (Zou et al., 1997) was ectopically expressed in HT29 cells. […] This was accompanied by dose-dependent decreases in Axin 2 and phosphorylated Smad2 levels. […]

SMILES: COc1cc(O)c2c(c1)/C=C/C[C@H](O)[C@H](O)C(=O)/C=C\C[C@H](C)OC2=O [5Z-7-oxozeaenol]
- toxicity in treated mice [1]: No overt toxicity
- threonine 172 phosphorylation of AMPK (p-AMPK) ([2]; KRAS-dependent colon cancer cells): reduced
- AMPK phosphorylation ([2]; KRAS-independent cells): unaffected
- Axin 2 expression (Wnt target gene Axin 2; KRAS-dependent cells): dose-dependent reduction
- Axin 2 expression, dose-dependent reduction (Wnt target gene Axin 2; KRAS-independent cells): not
- reduction in the IC50 for 5Z-7-oxozeaenol [3]: 3 fold
- IC50 [4]: 7.7 µM
